Several values for one entry are separate records, joined by “and”; a condition that tells them apart may be missing. Identical values can stand only once.
How the values were obtained:
ES-2 ovarian cancer = test: ES-2 ovarian tumor xenograft growth; type: in vivo, mouse
Method: 4–6 weeks old female BALB/c nude mice were used for most experiments, with the exception of 6–8 weeks old female C57BL/6 mice were used for B16F10 experiments, and 6–8 weeks old male BALB/c nude mice and SD rats were used for pharmacokinetic experiments. All animals were purchased from Shanghai SIPPR-Bk Lab Animal Co., Ltd. All animals were housed under a regimen of 12 h light/12 h dark cycles and specific pathogen-free conditions. 5×10^6 NCI-H526, ES-2, MDA-MB231, A2780, A375, B16F10, and TMD-8 cells (0.1 ml) were injected subcutaneously into female nude mice. The melanoma patient-derived xenograft model was derived from a human melanoma sample (BRAF, NARS and NF1 wild type, and p53 mutant) removed from a patient in Xiangya Hospital. Surgically removed tumor fragments were implanted subcutaneously into female NSG mice. When the tumors grew to ~1000 mm^3, they were harvested and cryopreserved or immediately re-implanted for expansion or experiments. Mouse body weight and tumor sizes were measured every 3 days. Once the tumors grew to 150–200 mm^3, mice were treated with the compounds as described in the Figures. 1 × 10^6 A2780 cells (1 ml) were injected into the abdominal cavity of nude mice. Ascitic volume and tumor weight were measured by an electronic balance. All the procedures were evaluated and approved by the Institutional Animal Care and Use Committee of Central South University and Yale University.
Supplementary Figure 9. […]
PO, oral administration; QD, once daily; BID, twice daily; D, day. (c,d) Tumor growth curves for ES2 ovarian tumor (c), MDA-MB231 breast tumor (d) bearing mice treated with the indicated compounds for 21 days. Compounds were orally administrated once daily. Data are presented as mean ± SEM from 6 different mice. p values were calculated using two-tailed, unpaired t tests.
**, p<0.01; ***, p<0.001. Source data are provided as a Source Data file. […]

TAMs = test: Ki67 FACS of TAMs induced by CSF1; type: cell-based, mouse
Method: Flow cytometry analyses were performed using antibodies listed in Supplementary Table 8. For cell surface markers, mouse TAM suspensions were stained with mouse APC-CD45, FITC-CD11b, PE-F4/80 or APC-F4/80, CD68, and PE-CD206 antibodies for 15 min on ice. For Ki67 staining, cells were fixed in 4% paraformaldehyde and stained with FITC-Ki67. Isotype matching antibody served as the negative control. Flow cytometry was performed on a FACSCalibur (BD Biosciences). Data were analyzed with BD CellQuest Pro software version 5.1.
Supplementary Figure 14. NHWD-870 and BRD4 deletion partially inhibite d prolifera tion of TAMs […]
(a) CD45+CD11b+F4/80 + TAMs in the orthotopic B16 melanoma model were harvested from tumors. Shown are representative FACS plots of TAMs. (b,c) Representative FACS plots (b) and quantification (c) of Ki67+ macrophages treated with 50 ng/ml CSF1, and DMSO or 25 or 50 nM NHWD-870. […]
TAMs induced by CSF1. (a-c) CD11b+F4/80+ macrophages in the orthotopic B16F10 melanoma model were harvested from tumor tissues. Shown are representative CD45+, CD11b+, F4/80+ FACS plots (a) and quantification of the percentage of Ki67+ cells after treatment with DMSO or NHWD-870 dependent on CSF1 stimulation (b,c). (d-g) FACS plots and quantification of the percentage of Ki67+ cells after CRISPR/Cas9-mediated BRD4 knockout (d,e) and c-MYC knockout (f,g) in CD11b+F4/80+ macrophages. CSF1 is added at the indicated concentration.
Please also see response to comment # 4 about our 2D assays, in which we used colony number to quantify the number of TAMs.
NHWD-870 treatment and the main differences are colony size.
6. For comparison purposes, it would be a good idea to compare the direct effect of NHWD-870 on in […]
marrow derived macrophage proliferation and gene expression in vitro). […]

[1] = ES-2, 1mg/kg p.o. QD x 21D, day 0, group AVG
[2] = ES-2, 1mg/kg p.o. QD x 21D, day 0, individual animals
[3] = ES-2, 1mg/kg p.o. QD x 21D, day 4, group AVG
[4] = ES-2, 1mg/kg p.o. QD x 21D, day 4, individual animals
[5] = ES-2, 1mg/kg p.o. QD x 21D, day 7, group AVG
[6] = ES-2, 1mg/kg p.o. QD x 21D, day 7, individual animals
[7] = ES-2, 1mg/kg p.o. QD x 21D, day 11, group AVG
[8] = ES-2, 1mg/kg p.o. QD x 21D, day 11, individual animals
[9] = ES-2, 1mg/kg p.o. QD x 21D, day 14, group AVG
[10] = ES-2, 1mg/kg p.o. QD x 21D, day 14, individual animals
[11] = ES-2, 1mg/kg p.o. QD x 21D, day 17, group AVG
[12] = ES-2, 1mg/kg p.o. QD x 21D, day 17, individual animals
[13] = ES-2, 1mg/kg p.o. QD x 21D, day 20, group AVG
[14] = ES-2, 1mg/kg p.o. QD x 21D, day 20, individual animals
[15] = ES-2, 3mg/kg p.o. QD x 21D, day 0, group AVG
[16] = ES-2, 3mg/kg p.o. QD x 21D, day 0, individual animals
[17] = ES-2, 3mg/kg p.o. QD x 21D, day 4, group AVG
[18] = ES-2, 3mg/kg p.o. QD x 21D, day 4, individual animals
[19] = ES-2, 3mg/kg p.o. QD x 21D, day 7, group AVG
[20] = ES-2, 3mg/kg p.o. QD x 21D, day 7, individual animals
[21] = ES-2, 3mg/kg p.o. QD x 21D, day 11, group AVG
[22] = ES-2, 3mg/kg p.o. QD x 21D, day 11, individual animals
[23] = ES-2, 3mg/kg p.o. QD x 21D, day 14, group AVG
[24] = ES-2, 3mg/kg p.o. QD x 21D, day 14, individual animals
[25] = ES-2, 3mg/kg p.o. QD x 21D, day 17, group AVG
[26] = ES-2, 3mg/kg p.o. QD x 21D, day 17, individual animals
[27] = ES-2, 3mg/kg p.o. QD x 21D, day 20, group AVG
[28] = ES-2, 3mg/kg p.o. QD x 21D, day 20, individual animals

Cc1nnn(C)c1-c1cnc2c3c4cnn(C)c4ccc3n([C@H](c3ccccc3)C3CCOCC3)c2c1 [NHWD-870]
% Tumor growth, AVG (ES-2 ovarian cancer; [1]): 0% | Tumor volume, AVG (ES-2 ovarian cancer; [1]): 182.834 mm^3 | % Tumor growth (ES-2 ovarian cancer; [2]): 0% | Tumor volume (ES-2 ovarian cancer; [2]): 161.981 mm^3 and 208.246 mm^3 and 257.236 mm^3 and 142.384 mm^3 and 223.655 mm^3 and 103.5 mm^3 | % Tumor growth, AVG (ES-2 ovarian cancer; [3]): 71.8081% | Tumor volume, AVG (ES-2 ovarian cancer; [3]): 319.202 mm^3 | % Tumor growth (ES-2 ovarian cancer; [4]): 19.7778% and 126.134% and 74.5915% and 55.5126% and 76.849% and 77.9831% | Tumor volume (ES-2 ovarian cancer; [4]): 194.017 mm^3 and 470.917 mm^3 and 449.112 mm^3 and 221.425 mm^3 and 395.531 mm^3 and 184.213 mm^3 | % Tumor growth, AVG (ES-2 ovarian cancer; [5]): 143.924% | Tumor volume, AVG (ES-2 ovarian cancer; [5]): 449.139 mm^3 | % Tumor growth (ES-2 ovarian cancer; [6]): 108.101% and 224.596% and 137.285% and 85.7809% and 134.14% and 173.642% | Tumor volume (ES-2 ovarian cancer; [6]): 337.084 mm^3 and 675.959 mm^3 and 610.381 mm^3 and 264.522 mm^3 and 523.665 mm^3 and 283.22 mm^3 | % Tumor growth, AVG (ES-2 ovarian cancer; [7]): 266.816% | Tumor volume, AVG (ES-2 ovarian cancer; [7]): 666.569 mm^3 | % Tumor growth (ES-2 ovarian cancer; [8]): 228.373% and 360.792% and 253.375% and 196.866% and 222.989% and 338.501% | Tumor volume (ES-2 ovarian cancer; [8]): 531.902 mm^3 and 959.584 mm^3 and 909.007 mm^3 and 422.689 mm^3 and 722.381 mm^3 and 453.85 mm^3 | % Tumor growth, AVG (ES-2 ovarian cancer; [9]): 321.081% | Tumor volume, AVG (ES-2 ovarian cancer; [9]): 765.856 mm^3 | % Tumor growth (ES-2 ovarian cancer; [10]): 250.605% and 403.815% and 289.634% and 267.746% and 320.675% and 394.009% | Tumor volume (ES-2 ovarian cancer; [10]): 567.913 mm^3 and 1049.18 mm^3 and 1002.28 mm^3 and 523.611 mm^3 and 940.859 mm^3 and 511.301 mm^3 | % Tumor growth, AVG (ES-2 ovarian cancer; [11]): 435.897% | Tumor volume, AVG (ES-2 ovarian cancer; [11]): 1001.66 mm^3 | % Tumor growth (ES-2 ovarian cancer; [12]): 362.904% and 591.91% and 468.225% and 329.053% and 437.775% and 425.513% | Tumor volume (ES-2 ovarian cancer; [12]): 749.817 mm^3 and 1440.88 mm^3 and 1461.68 mm^3 and 610.902 mm^3 and 1202.76 mm^3 and 543.908 mm^3 | % Tumor growth, AVG (ES-2 ovarian cancer; [13]): 569.584% | Tumor volume, AVG (ES-2 ovarian cancer; [13]): 1249.88 mm^3 | % Tumor growth (ES-2 ovarian cancer; [14]): 729.742% and 506.506% and 450.639% and 539.702% and 621.332% | Tumor volume (ES-2 ovarian cancer; [14]): 1727.91 mm^3 and 1560.15 mm^3 and 784.021 mm^3 and 1430.72 mm^3 and 746.582 mm^3 | % Tumor growth, AVG (ES-2 ovarian cancer; [15]): 0% | Tumor volume, AVG (ES-2 ovarian cancer; [15]): 180.514 mm^3 | % Tumor growth (ES-2 ovarian cancer; [16]): 0% | Tumor volume (ES-2 ovarian cancer; [16]): 100.979 mm^3 and 154.514 mm^3 and 151.014 mm^3 and 168.003 mm^3 and 255.303 mm^3 and 253.274 mm^3 | % Tumor growth, AVG (ES-2 ovarian cancer; [17]): 106.339% | Tumor volume, AVG (ES-2 ovarian cancer; [17]): 355.904 mm^3 | % Tumor growth (ES-2 ovarian cancer; [18]): 103.958% and 55.5923% and 228.844% and 138.521% and 84.9035% and 26.2158% | Tumor volume (ES-2 ovarian cancer; [18]): 205.955 mm^3 and 240.412 mm^3 and 496.599 mm^3 and 400.722 mm^3 and 472.064 mm^3 and 319.672 mm^3 | % Tumor growth, AVG (ES-2 ovarian cancer; [19]): 146.015% | Tumor volume, AVG (ES-2 ovarian cancer; [19]): 424.47 mm^3 | % Tumor growth (ES-2 ovarian cancer; [20]): 172.578% and 87.9551% and 265.997% and 159.587% and 128.487% and 61.4849% | Tumor volume (ES-2 ovarian cancer; [20]): 275.247 mm^3 and 290.417 mm^3 and 552.706 mm^3 and 436.115 mm^3 and 583.334 mm^3 and 408.999 mm^3 | % Tumor growth, AVG (ES-2 ovarian cancer; [21]): 196.378% | Tumor volume, AVG (ES-2 ovarian cancer; [21]): 514.744 mm^3 | % Tumor growth (ES-2 ovarian cancer; [22]): 265.602% and 115.285% and 217.088% and 283.945% and 177.512% and 118.838% | Tumor volume (ES-2 ovarian cancer; [22]): 369.182 mm^3 and 332.645 mm^3 and 478.846 mm^3 and 645.04 mm^3 and 708.495 mm^3 and 554.259 mm^3 | % Tumor growth, AVG (ES-2 ovarian cancer; [23]): 274.736% | Tumor volume, AVG (ES-2 ovarian cancer; [23]): 656.818 mm^3 | % Tumor growth (ES-2 ovarian cancer; [24]): 256.941% and 190.731% and 428.695% and 356.714% and 248.463% and 166.876% | Tumor volume (ES-2 ovarian cancer; [24]): 360.436 mm^3 and 449.22 mm^3 and 798.401 mm^3 and 767.293 mm^3 and 889.635 mm^3 and 675.926 mm^3 | % Tumor growth, AVG (ES-2 ovarian cancer; [25]): 372.557% | Tumor volume, AVG (ES-2 ovarian cancer; [25]): 841.506 mm^3 | % Tumor growth (ES-2 ovarian cancer; [26]): 349.385% and 221.259% and 495.296% and 524.547% and 433.889% and 210.963% | Tumor volume (ES-2 ovarian cancer; [26]): 453.785 mm^3 and 496.39 mm^3 and 898.977 mm^3 and 1049.26 mm^3 and 1363.03 mm^3 and 787.588 mm^3 | % Tumor growth, AVG (ES-2 ovarian cancer; [27]): 570.165% | Tumor volume, AVG (ES-2 ovarian cancer; [27]): 1173.35 mm^3 | % Tumor growth (ES-2 ovarian cancer; [28]): 589.68% and 492.445% and 716.71% and 706.345% and 598.649% and 317.161% | Tumor volume (ES-2 ovarian cancer; [28]): 696.433 mm^3 and 915.41 mm^3 and 1233.34 mm^3 and 1354.69 mm^3 and 1783.67 mm^3 and 1056.56 mm^3 | effect on tumor growth (ES-2 ovarian cancer; ES-2 ovarian cancer, oral once daily 21 days): strong tumor-suppressive effects | decrease of TAMs proliferation (Ki67 FACS) (TAMs; TAMs induced by CSF1): ~ 50% | fold decrease of CSF1 induced growth of macrophages (TAMs; direct treatment of TAMs in 2D growth assays): < 2 fold

From paper PMC7156724, “Potent BRD4 inhibitor suppresses cancer cell-macrophage interaction” (Nature Communications, 2020)
